Measured values from publication PMC6805867, “Amphiphilic Triazine Polymer Derivatives as Antibacterial And Anti-atopic Agents in Mice Model” (Scientific Reports, 2019).

Assays:
[1] = system: Bacillus subtilis (KCTC 3068); assay: Antimicrobial activity, broth microdilution MIC; assay type: cell-based; details: 2 × 10^6 CFU/mL in 1% peptone, 37 °C, 18–22 h, 100% inhibition of growth, performed three times
Experimental: (§1) The bacterial strains employed in the experiment were Escherichia coli (KCTC 1682), Pseudomonas aeruginosa (KCTC 1637), Bacillus subtilis (KCTC 3068), Staphylococcus aureus (KCTC 1621), three methicillin-resistant Staphylococcus aureus (CCARM 3089, 3090 and 3095), two multidrug-resistant Pseudomonas aeruginosa (CCARM 2095 and 2109) and vancomycin-resistant Enterococcus faecium (ATCC 51559). The antimicrobial activities of polymers were determined by the broth microdilution method, and the procedures were used as previously reported. Briefly, bacteria grown to mid-logarithmic phase in LB broth were diluted to 2 × 10^6 CFU/mL in 1% peptone and added to serial two-fold dilutions of different polymers ranging from 1 to 64 μg/mL. The plates were incubated in a shaking incubator at 37 °C for 18–22 h. The minimum inhibitory concentration (MIC) was determined by confirming the absence of bacterial growth both visually and spectrophotometrically by OD600 readings taken by a microplate ELISA reader (Molecular Devices, Sunnyvale, CA, USA). All measurements were performed three times.

[2] = system: Escherichia coli (KCTC 1682); assay: Antimicrobial activity, broth microdilution MIC; assay type: cell-based; details: 2 × 10^6 CFU/mL in 1% peptone, 37 °C, 18–22 h, 100% inhibition of growth, performed three times
Experimental: as §1

[3] = system: Pseudomonas aeruginosa (KCTC 1637); assay: Antimicrobial activity, broth microdilution MIC; assay type: cell-based; details: 2 × 10^6 CFU/mL in 1% peptone, 37 °C, 18–22 h, 100% inhibition of growth, performed three times
Experimental: as §1

[4] = system: Staphylococcus aureus (KCTC 1621); assay: Antimicrobial activity, broth microdilution MIC; assay type: cell-based; details: 2 × 10^6 CFU/mL in 1% peptone, 37 °C, 18–22 h, 100% inhibition of growth, performed three times
Experimental: as §1

[5] = system: Multidrug-resistant Pseudomonas aeruginosa (MDRPA) CCARM 2109; assay type: cell-based; details: broth microdilution, 37 °C, 18–22 h
Experimental: as §1

[6] = system: β-hexosaminidase release from RBL-2H3 cells; assay: β-hexosaminidase release assay; assay type: cell-based, rat; details: 500 μg/mL, 12 h treatment, A23187 1 μM 30 min, dose-dependent
Experimental: The β-hexosaminidase assay was performed as described previously with some modifications. Cells were treated with different concentrations of samples for 12 h. The treated cells were washed two times with PBS and stimulated with calcium ionophore A23187 (1 μM, final concentration) at 37 °C for 30 min. Aliquots (50 μL) of the supernatants were incubated with 50 μL of 1 mM 4-nitrophenyl-N-acetyl-β-D-glucosaminide in 0.1 M sodium citrate (pH 4.5) at 37 °C for 1 h. At the end of incubation, 250 μL of carbonate buffer containing 0.1 M Na2CO3 and 0.1 M NaHCO3 (pH 10) was added, and then the absorbance due to the formation of p-nitrophenol was measured at 410 nm. The supernatant from the non-stimulated cells was used as a blank while the supernatant from the stimulated cells with calcium ionophore A23187 alone was used as a control. The β-hexosaminidase release levels were calculated as a percentage compared to that of control: β-hexosaminidase release (%) = (absorbance of tested sample− absorbance of blank)/(absorbance of control-absorbance of blank) × 100.
Effect of TZP3 and TZP5 on TNF-α suppression
Therefore, the dimer TZP3 and trimer TZP5 were probed for their potential for inhibiting the TNF-α induced from RBL-2H3 cells in in vitro method.
Calcium ionophore A23187 and PMA induced the TNF-α secretion in RBL-2H3 cells, on the contrary, treatment of which with TZP3 and TZP5
Figure S1. […]

[7] = system: dorsal skin of AD-induced BALB/c mice; assay: DNCB-induced AD model, histological observations (H&E, toluidine blue); assay type: in vivo; details: versus AD mice; for decrease in both epidermal and dermal thickness: 200 μg/mL topical daily for 18 days, H&E staining; for infiltration of mast cells in the skin lesions: topical application, toluidine blue staining
Experimental: (§2) As described in our previous article, the 7-week-old female BALB/c mice were divided into seven groups (n = 8 per group): Control (Con) group, TZP3 200 μg/mL (TZP3) group, and TZP5 200 μg/mL (TZP5) group, DNCB-sensitized only (AD) group, DNCB-sensitized + TZP3 200 μg/mL (AD + TZP3) group, DNCB-sensitized + TZP5 200 μg/mL (AD + TZP5) group, DNCB-sensitized + Dermatop (Sanofi, Korea) 0.25% (AD + Dermatop) group. Dermatop was used as a positive control treatment. For the first induction of AD in the BALB/c mice, the backs of the mice were shaved and challenged with 200 μL of 1% 2,4-dinitrochlorobenzene(DNCB) in acetone/olive oil (3:1) one time (day−4). After 4 days from the induction, 0.5% DNCB was painted onto the backs of the mice every two days (day 2, 4, 6, 8, 10, 12, 14, 16 and 18). Concentrations of 200 μg/mL TZP3 or TZP5 in 20 μL of PBS were applied to the dorsal skin once daily for 18 days.
As described in our previous article, the skin tissues of the mice were […] in 10% neutral buffered formalin (NBF) for 24 h and embedded in white paraffin. Serial paraffin‐sections with 5 µm thickness, were prepared and stained with hematoxylin-eosin (H&E) or toluidine blue. The thickness of the epidermis and dermis was measured under a microscope. The number of mast cells stained by toluidine blue in the upper dermis in a field of 0.25 mm × 0.25 mm (0.0625 mm^2) was counted under the microscope. The cells in five fields (0.3125 mm^2 in total) of the upper dermis were counted, and an estimate of the number of cells per 1 mm^2 was made for each mouse specimen.

[8] = system: TGF-β, TNF-α, iNOS, COX-2 protein in dorsal tissue; assay: DNCB-induced AD model, western blot of inflammatory mediators; assay type: in vivo, BALB/c mice; details: versus AD mice
Experimental: as §2
Frozen skins from the mice were homogenized in liquid nitrogen. For the western blot analysis, the tissues were lysed in a RIPA lysis buffer(Sigma) containing 1% protease inhibitor. The cell lysates were incubated on ice for 1 h and then the homogenates were centrifuged at 13000 rpm for 20 min at 4 °C. […] The antibody-specific proteins were visualized with enhanced chemiluminescence (ECL) detection reagent and quantified using the ImageJ software. […]

Row | Structure (SMILES) | MIC Bacillus subtilis (KCTC 3068) [1] | MIC Escherichia coli (KCTC 1682) [2] | MIC Pseudomonas aeruginosa (KCTC 1637) [3] | MIC Staphylococcus aureus (KCTC 1621) [4] | MIC MDRPA CCARM 2109 [5] | inhibition of β-hexosaminidase release [6] | decrease in both epidermal and dermal thickness [7] | infiltration of mast cells in the skin lesions [7] | protein expressions (TGF-β, TNF-α, iNOS, COX-2) in dorsal tissue [8]
1 | NCCCN(CCCN)c1nc(N)nc(NCCNc2nc(Cl)nc(N(Cc3ccccc3)Cc3ccccc3)n2)n1 [TZP3] | 2 [3.4] μg/mL | 4 [6.8] μg/mL | 8 [13.5] μg/mL | 4 [6.8] μg/mL | 8 [13.5] µg/mL | maximum inhibitory effects | more than 50% | significantly suppressed | significant decrease
2 | NCCCN(CCCN)c1nc(Cl)nc(NCCNc2nc(NCCNc3nc(N)nc(NCCC(c4ccccc4)c4ccccc4)n3)nc(N(CCCN)CCCN)n2)n1 [TZP5] | 2 [1.5] μg/mL | 4 [3] μg/mL | 4 [3] μg/mL | 4 [3] μg/mL | 8 [6] µg/mL | maximum inhibitory effects | more than 50% | significantly suppressed | significant decrease
